pIC50: −log10 of the molar value.
What was measured:
[1] = tested on: iNOS activity in human primary airway epithelial cells; test: Nitrite in media of cytokine-treated human primary airway epithelial cells; assay type: cell-based; conditions: 50 ng/ml IL-1β, TNF-α and IFN-γ (cytomix), 24 h; FIG. 1; read-out: IC50 for inhibition of the increase in nitrite in the media
Description: Human primary airway epithelial cell cultures: Human primary airway epithelial cells were cultured as described previously (see Donnelly,L. E. and Barnes, P. J. Am J Respir Cell Mol.Biol 24:295-303 (2000)), and the amount of nitrite, the stable oxidation product of NO, in the cell culture media was measured using a modification of the spectrofluorometric method of Misko et al., Anal. Biochem. […] (1993).
The protein was evenly distributed throughout the cytoplasm in basal cells but clearly located beneath the cilia in the columnar, ciliated cells. Treatment of airway epithelial cells with 50 ng/ml of IL-1β, TNF-α and IFN-γ (cytomix) for 24 h caused an induction of iNOS protein and an increase in the accumulation of nitrite in cell culture media from 2.20±0.2 μM in the absence of cytomix, to 3.5±0.4 μM in the presence of cytomix.
Media was harvested and measured for nitrite content (FIG. 1). Cellular proteins were resolved on 3-8% tris-acetate polyacrylamide gels and immunoblotted for iNOS protein (FIG. 2).
Rather, as expected, it appears to result from inhibition of enzymatic activity.

[2] = tested on: iNOS protein expression in human primary airway epithelial cells; test: Western blotting of iNOS from cultured epithelial cells; assay type: cell-based; conditions: cytomix-treated cells; FIG. 2
Description: Westem blotting of INOS from cultured epithelial cells: Following incubation with the cytokine mixture alone or with various concentrations of L-NIL, epithelial cells were lysed in 50 mM Tris/HCl, pH 7.4, containing 0.25 mM ethylene diaminotetraacetic acid, 0.5 mM phenylmethylsulfonyl fluoride, 5 μg/ml antipain, 5 μg/ml leupeptin and 5 μg/ml benzaminidine. The protein concentration was determined using the BioRad protein assay kit according to the manufacturer's instructions. Cell proteins were solubilized in sodium dodecyl sulfate polyacrylamide gel electrophoresis sample buffer ([…] Tris/HCl, pH 6.8, containing 10% v/v glycerol, 1% w/v SDS, 1% w/v β-mercaptoethanol, and 0.01% w/v bromophenol blue). The proteins (15 μg per lane) were resolved by electrophoresis in 3-8% (w/v) Tris-acetate SDS-polyacrylamide gels and transferred to Hybond-Enhanced Chemi-luminescence (ECL) nitro-cellulose membranes. Equal protein loading was determined by staining the blot with 0.1% (w/v) Ponceau S in 5% (v/v) acetic acid. The nitro-cellulose was then blocked overnight at 4° C. in 0.5M Tris-HCl,pH 7.4, containing 3% (w/v) normal goat serum, 1% (w/v) bovine serum albumin and 0.05% (v/v) Tween-20. […]
Media was harvested and measured for nitrite content (FIG. 1). […]

pIC50 [1]: ~5.24
Compound: CC(=N)NCCCC[C@H](N)C(=O)O [L-NIL]
effect on iNOS expression as detected by immunoblotting [2]: did not affect
